“And” between values parts separate entries of the source, which are not always exact repeats. Equal values may be shown once. Read-outs that look alike come from different tables or passages of the source.
Assays:
[1] = tested on: H1N1/A/California/04/09 influenza virus; parameters: species or system BALB/c mice; settings: mouse, in vivo
[2] = tested on: influenza A H5N1 Duck/MN/1525/81 virus; settings: mouse, in vivo; cited from earlier work
[3] = tested on: influenza A H5N1 Duck/MN/1525/81 virus; parameters: species or system BALB/c mice; settings: mouse, in vivo
[4] = tested on: cytokine and chemokine levels in lungs of mice infected with H5N1 influenza virus; parameters: species or system BALB/c mice; settings: mouse, in vivo
[5] = tested on: H1N1/A/California/04/09 influenza virus; assay: Body weight of mice in lethal H1N1 influenza infection; format: in vivo, BALB/c mice; settings: FIG. 3A, 3B
H5N1 influenza virus = tested on: H5N1 influenza virus; parameters: species or system BALB/c mice; settings: mouse, in vivo
[6] = tested on: inflammatory cytokines IL2, IFN-γ, TNF-α; settings: reference [9]; cited from earlier work

Compound: CCOC(=O)C1=C[C@@H](OC(CC)CC)[C@H](NC(C)=O)[C@@H](N)C1 [Oseltamivir, reference compound]
- survival [1]: 30%
- survival routinely yielded by this Oseltamivir dose [2]: 10-30%
- survival [3]: 70% and 50%

Compound: (D-Ala)-SPMLVAYD-(D-Ala) (XSPMLVAYDX; D-Ala at both termini; (D-A)-p2TA-(D-A); (1)..(1) X equals to D-Ala; (10)..(10) X equals to D-Ala)
- protection [1]: did not prove protective
- IFN-γ level in lungs [4]: significantly reduce
- IL-1α level in lungs [4]: significantly reduce
- IL-1β level in lungs [4]: significantly reduce
- IL-6 level in lungs [4]: significantly reduce
- IL-10 level in lungs [4]: did not significantly reduce
- monocyte chemoattractant protein-1 (MCP-1) level in lungs [4]: significantly reduce
- recovery from infection-induced weight loss ([5]; dose-dependent, after day 8): partial recovery from infection-induced weight loss
- weight gain by day 17 ([5]; p2TA 10 μg per mouse, Ribavirin 75 mg/kg i.p.): ~20%
- prolongation of survival over untreated control [3]: moderate, dose-dependent prolongation of survival
- protection [3]: no protection
- effect on death ([3]; ip): delayed death
- survival ([3]; ip): 30%
- arterial oxygen saturation level (H5N1 influenza virus): significantly improved
- oxygen saturation (lung function) (H5N1 influenza virus): significant improvement in lung function

Compound: HKGLDSAV [p3TA]
- biological activity compared with p2TA [6]: biological activity similar to that of p2TA

Compound: SNGTIIHVK [p5TA]
- biological activity compared with p2TA [6]: biological activity similar to that of p2TA

Compound: YVNQTDIY [p4TA]
- biological activity compared with p2TA [6]: biological activity similar to that of p2TA

From patent publication US11304989B2, “Peptides for use in the treatment of viral infections” (priority 2017, dated 2022)
